What was measured:
Assay in all cases: Kinase profiling in a biochemical assay panel (mobility shift assays and ELISA), %-inhibition at 1 μM; selectivity entropy
[1] = biological target: panel of more than 300 wild-type and mutant kinases (313 kinase panel) (Homo sapiens, UniProt Q9P289)
[2] = biological target: T1, panel of more than 300 wild-type and mutant kinases (313 kinase panel) (Homo sapiens, UniProt Q15831)
T1 sequence (Q15831 1-433): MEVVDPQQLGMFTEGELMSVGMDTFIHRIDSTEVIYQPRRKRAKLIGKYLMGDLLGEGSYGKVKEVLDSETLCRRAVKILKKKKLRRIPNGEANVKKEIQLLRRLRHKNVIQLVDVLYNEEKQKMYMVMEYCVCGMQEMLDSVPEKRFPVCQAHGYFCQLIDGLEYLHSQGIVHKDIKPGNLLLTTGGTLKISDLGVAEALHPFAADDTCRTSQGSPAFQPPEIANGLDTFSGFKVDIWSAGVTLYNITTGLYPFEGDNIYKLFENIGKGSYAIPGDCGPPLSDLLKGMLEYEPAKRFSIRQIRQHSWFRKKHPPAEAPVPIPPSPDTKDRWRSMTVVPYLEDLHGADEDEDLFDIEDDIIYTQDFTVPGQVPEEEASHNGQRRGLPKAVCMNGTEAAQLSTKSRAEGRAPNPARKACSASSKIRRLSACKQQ

[3] = biological target: panel of more than 300 wild-type and mutant kinases (313 kinase panel) (Homo sapiens, UniProt O94804)
Sequence of panel of more than 300 wild-type and mutant kinases (313 kinase panel) (Homo sapiens, UniProt O94804) (O94804 whole entry, change not shown): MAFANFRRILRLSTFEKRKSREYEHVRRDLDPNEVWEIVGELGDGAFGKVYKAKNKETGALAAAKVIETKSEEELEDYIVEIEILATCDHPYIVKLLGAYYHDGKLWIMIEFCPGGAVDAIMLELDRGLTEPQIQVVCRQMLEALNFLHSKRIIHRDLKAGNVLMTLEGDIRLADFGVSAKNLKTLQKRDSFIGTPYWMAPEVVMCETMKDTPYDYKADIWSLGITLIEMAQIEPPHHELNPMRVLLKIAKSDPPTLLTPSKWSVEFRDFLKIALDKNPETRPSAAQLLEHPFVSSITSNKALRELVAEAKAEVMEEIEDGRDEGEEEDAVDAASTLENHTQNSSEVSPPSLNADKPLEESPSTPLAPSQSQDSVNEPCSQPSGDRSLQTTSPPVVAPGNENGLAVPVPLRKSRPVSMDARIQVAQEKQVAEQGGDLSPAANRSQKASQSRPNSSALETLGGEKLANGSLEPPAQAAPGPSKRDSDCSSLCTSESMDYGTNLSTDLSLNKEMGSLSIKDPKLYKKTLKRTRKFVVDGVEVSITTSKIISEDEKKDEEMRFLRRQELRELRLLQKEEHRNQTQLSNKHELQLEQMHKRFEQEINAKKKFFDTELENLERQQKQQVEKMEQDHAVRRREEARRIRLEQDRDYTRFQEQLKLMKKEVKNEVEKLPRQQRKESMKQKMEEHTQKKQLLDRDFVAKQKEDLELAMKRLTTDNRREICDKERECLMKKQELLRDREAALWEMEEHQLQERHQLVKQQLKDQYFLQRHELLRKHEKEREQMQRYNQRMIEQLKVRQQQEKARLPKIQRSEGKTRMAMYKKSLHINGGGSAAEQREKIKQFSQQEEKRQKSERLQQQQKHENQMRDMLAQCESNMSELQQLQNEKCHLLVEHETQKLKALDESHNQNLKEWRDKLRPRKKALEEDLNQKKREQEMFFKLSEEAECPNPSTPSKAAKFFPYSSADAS

[4] = biological target: T2, panel of more than 300 wild-type and mutant kinases (313 kinase panel) (Homo sapiens, UniProt O00141)
T2 sequence (O00141 1-431): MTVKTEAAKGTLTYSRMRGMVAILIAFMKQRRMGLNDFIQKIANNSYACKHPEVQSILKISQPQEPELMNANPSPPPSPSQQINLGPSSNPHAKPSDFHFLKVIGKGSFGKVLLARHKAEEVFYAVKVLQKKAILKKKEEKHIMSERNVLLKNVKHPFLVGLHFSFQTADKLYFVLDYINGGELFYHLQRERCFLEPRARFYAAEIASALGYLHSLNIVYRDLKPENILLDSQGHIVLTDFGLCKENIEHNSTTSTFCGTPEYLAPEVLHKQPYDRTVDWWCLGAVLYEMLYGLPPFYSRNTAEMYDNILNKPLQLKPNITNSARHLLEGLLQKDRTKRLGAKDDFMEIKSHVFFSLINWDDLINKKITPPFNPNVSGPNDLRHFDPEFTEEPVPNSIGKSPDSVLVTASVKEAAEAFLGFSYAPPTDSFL

[5] = biological target: panel of more than 300 wild-type and mutant kinases (313 kinase panel) (Homo sapiens, UniProt P49137)
Sequence of panel of more than 300 wild-type and mutant kinases (313 kinase panel) (Homo sapiens, UniProt P49137) (P49137 whole entry, change not shown): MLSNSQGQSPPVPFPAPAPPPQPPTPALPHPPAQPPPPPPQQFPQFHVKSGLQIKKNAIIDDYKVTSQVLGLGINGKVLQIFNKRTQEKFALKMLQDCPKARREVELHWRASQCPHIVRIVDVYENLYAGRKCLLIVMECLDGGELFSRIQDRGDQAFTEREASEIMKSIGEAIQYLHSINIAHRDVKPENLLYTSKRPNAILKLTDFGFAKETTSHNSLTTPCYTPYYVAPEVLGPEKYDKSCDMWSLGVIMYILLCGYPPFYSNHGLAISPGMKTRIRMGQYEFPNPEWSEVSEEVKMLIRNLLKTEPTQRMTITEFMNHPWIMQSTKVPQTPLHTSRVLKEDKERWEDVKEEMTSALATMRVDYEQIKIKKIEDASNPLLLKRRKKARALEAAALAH

[6] = biological target: panel of more than 300 wild-type and mutant kinases (313 kinase panel) (Homo sapiens, UniProt Q00534)
[7] = biological target: T3, panel of more than 300 wild-type and mutant kinases (313 kinase panel) (Homo sapiens, UniProt Q96PN8)
T3 sequence (Q96PN8 1-268): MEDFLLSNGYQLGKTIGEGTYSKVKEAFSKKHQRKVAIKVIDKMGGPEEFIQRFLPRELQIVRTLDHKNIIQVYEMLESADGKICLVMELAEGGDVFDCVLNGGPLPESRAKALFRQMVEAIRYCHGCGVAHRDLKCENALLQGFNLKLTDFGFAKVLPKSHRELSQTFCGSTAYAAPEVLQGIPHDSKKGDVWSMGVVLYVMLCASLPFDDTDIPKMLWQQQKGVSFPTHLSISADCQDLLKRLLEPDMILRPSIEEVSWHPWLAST

[8] = biological target: panel of more than 300 wild-type and mutant kinases (313 kinase panel) (Homo sapiens, UniProt P31751)
Sequence of panel of more than 300 wild-type and mutant kinases (313 kinase panel) (Homo sapiens, UniProt P31751) (P31751 whole entry, change not shown): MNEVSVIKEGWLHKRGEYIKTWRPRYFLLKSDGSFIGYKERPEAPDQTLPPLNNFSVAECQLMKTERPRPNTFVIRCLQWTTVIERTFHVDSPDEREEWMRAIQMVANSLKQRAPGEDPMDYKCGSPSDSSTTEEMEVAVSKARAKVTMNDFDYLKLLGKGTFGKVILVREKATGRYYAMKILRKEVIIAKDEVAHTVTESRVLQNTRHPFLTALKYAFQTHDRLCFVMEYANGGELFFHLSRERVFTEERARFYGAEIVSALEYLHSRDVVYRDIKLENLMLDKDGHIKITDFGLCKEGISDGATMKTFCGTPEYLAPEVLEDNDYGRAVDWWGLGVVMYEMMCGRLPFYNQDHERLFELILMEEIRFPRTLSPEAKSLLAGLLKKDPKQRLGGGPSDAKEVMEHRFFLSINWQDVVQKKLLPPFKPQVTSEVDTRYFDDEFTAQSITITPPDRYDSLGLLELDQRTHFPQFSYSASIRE

[9] = biological target: panel of more than 300 wild-type and mutant kinases (313 kinase panel) (Homo sapiens, UniProt O00311)
[10] = biological target: T4, panel of more than 300 wild-type and mutant kinases (313 kinase panel) (Homo sapiens, UniProt P51813)
T4 sequence (P51813 1-675): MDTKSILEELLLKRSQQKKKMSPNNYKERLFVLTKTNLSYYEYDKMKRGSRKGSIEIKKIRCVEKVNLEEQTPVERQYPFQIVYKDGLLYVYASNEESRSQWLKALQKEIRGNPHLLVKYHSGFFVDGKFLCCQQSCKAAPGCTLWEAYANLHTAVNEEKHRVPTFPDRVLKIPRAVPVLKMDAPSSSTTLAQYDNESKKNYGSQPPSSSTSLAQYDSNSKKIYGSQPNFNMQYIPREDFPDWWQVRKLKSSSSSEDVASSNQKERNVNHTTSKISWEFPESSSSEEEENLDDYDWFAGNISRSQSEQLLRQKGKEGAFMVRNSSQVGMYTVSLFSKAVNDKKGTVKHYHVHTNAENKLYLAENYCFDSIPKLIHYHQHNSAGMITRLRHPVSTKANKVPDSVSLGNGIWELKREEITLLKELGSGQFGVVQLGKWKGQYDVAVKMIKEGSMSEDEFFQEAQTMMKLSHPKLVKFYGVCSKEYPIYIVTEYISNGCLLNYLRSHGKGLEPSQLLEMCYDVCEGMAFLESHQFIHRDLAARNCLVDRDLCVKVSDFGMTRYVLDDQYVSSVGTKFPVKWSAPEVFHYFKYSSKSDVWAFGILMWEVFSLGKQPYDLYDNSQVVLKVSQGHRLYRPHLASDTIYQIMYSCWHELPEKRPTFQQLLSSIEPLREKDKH

[11] = kinase MAPKAPK2, compound at 1 μM
[12] = kinase CDK6/CycD3, 1 μM compound

Sequence of panel of more than 300 wild-type and mutant kinases (313 kinase panel) (Homo sapiens, UniProt Q9P289) (Q9P289 whole entry, change not shown): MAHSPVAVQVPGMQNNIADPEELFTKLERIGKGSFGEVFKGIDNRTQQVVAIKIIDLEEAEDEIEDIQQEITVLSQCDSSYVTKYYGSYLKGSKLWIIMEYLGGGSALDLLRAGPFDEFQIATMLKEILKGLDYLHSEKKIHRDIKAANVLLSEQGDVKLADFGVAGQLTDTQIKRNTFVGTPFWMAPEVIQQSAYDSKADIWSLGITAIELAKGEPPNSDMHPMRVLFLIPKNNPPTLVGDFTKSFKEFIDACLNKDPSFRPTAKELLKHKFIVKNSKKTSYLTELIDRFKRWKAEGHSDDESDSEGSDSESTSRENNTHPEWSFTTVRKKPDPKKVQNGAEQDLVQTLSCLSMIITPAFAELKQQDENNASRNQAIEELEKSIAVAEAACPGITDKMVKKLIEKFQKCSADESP

Compound	%-inhibition of MST4 ([1]; kinase MST4, 1 μM) [%]	%-inhibition of LKB1 ([2]; kinase LKB1, compound at 1 μM) [%]	%-inhibition of LOK ([3]; kinase LOK, compound at 1 μM) [%]	%-inhibition of SGK ([4]; kinase SGK, 1 μM) [%]	%-inhibition of MAPKAPK2 [5, 11] [%]	%-inhibition, CDK6/CycD3 [6, 12] [%]	%-inhibition of TSSK3 ([7]; kinase TSSK3, compound at 1 μM) [%]	%-inhibition, AKT2 ([8]; kinase AKT2, 1 μM compound) [%]	%-inhibition, CDC7/ASK ([9]; kinase CDC7/ASK, 1 μM compound) [%]	%-inhibition, BMX ([10]; kinase BMX, 1 μM compound) [%]	%-inhibition of MST4 ([1]; 1 µM) [%]	%-inhibition of LKB1 ([2]; 1 µM) [%]	%-inhibition, CDC7/ASK ([9]; 1 µM) [%]	%-inhibition of LOK ([3]; 1 µM) [%]	%-inhibition, BMX ([10]; 1 µM) [%]	%-inhibition of SGK ([4]; 1 µM) [%]	%-inhibition of MAPKAPK2 ([5]; 1 µM) [%]	%-inhibition, CDK6/CycD3 ([6]; 1 µM) [%]	%-inhibition of TSSK3 ([7]; 1 µM) [%]	%-inhibition, AKT2 ([8]; 1 µM) [%]
C[C@@H](Oc1cc(-c2cnn(C3CCNCC3)c2)cnc1N)c1c(Cl)ccc(F)c1Cl [crizotinib]	0.54	-1.39	98	1.46	-17	0.0624	-0.601	-2.67												
CC(C)(C)c1nc(-c2cccc(NS(=O)(=O)c3c(F)cccc3F)c2F)c(-c2ccnc(N)n2)s1 [dabrafenib]	-7	4.34		4			-8		-6	55										
COc1cc2c(Nc3ccc(Br)cc3F)ncnc2cc1OCC1CCN(C)CC1 [vandetanib]	-2.22	-4.54	92	-4.51	-20	-1.19	-2.54	-1.77	-6.41	18										
O=S(=O)(c1cccc2cnccc12)N1CCCNCC1 [fasudil]	0.181	6	11	2.82	-13	-5.68	-6	-8	-7	-4										
C#Cc1cccc(Nc2ncnc3cc(OCCOC)c(OCCOC)cc23)c1 [erlotinib]											7	2	0.905	93	17	6	4.42	9	-7	8
COc1cc2nccc(Oc3ccc(NC(=O)C4(C(=O)Nc5ccc(F)cc5)CC4)cc3)c2cc1OC [cabozantinib]	-1.74	-3.17	96	-2	-17	0.312	-1.06	-3.78	-3.4	53										
Cc1ccc(C(=O)Nc2ccc(CN3CCN(C)CC3)c(C(F)(F)F)c2)cc1C#Cc1cnc2cccnn12 [ponatinib]		-12		7.57		25	-4.67		-7.45											
CCCS(=O)(=O)Nc1ccc(F)c(C(=O)c2c[nH]c3ncc(-c4ccc(Cl)cc4)cc23)c1F [vemurafenib]		1.13	-1	-0.122	-16	2.43	-3.19	-3	-7	24	-4.62									
CCN(CC)CCNC(=O)c1c(C)[nH]c(/C=C2\C(=O)Nc3ccc(F)cc32)c1C [sunitinib]	34	11	92	60																
Cc1cn(-c2cc(NC(=O)c3ccc(C)c(Nc4nccc(-c5cccnc5)n4)c3)cc(C(F)(F)F)c2)cn1 [nilotinib]	1.77			9	2.56	-23	12	12	-7			-6		-18						
CS(=O)(=O)CCNCc1ccc(-c2ccc3ncnc(Nc4ccc(OCc5cccc(F)c5)c(Cl)c4)c3c2)o1 [lapatinib]		4	17	2.49		5	0.192	4.61	3	9										
CNC(=O)c1cc(Oc2ccc(NC(=O)Nc3ccc(Cl)c(C(F)(F)F)c3)c(F)c2)ccn1 [regorafenib]	3.66	-5	80	-5.37	-21	-1.31	-4.39	-4	-5.36	-1.77										
Cc1nc(Nc2ncc(C(=O)Nc3c(C)cccc3Cl)s2)cc(N2CCN(CCO)CC2)n1 [dasatinib]		0.734		6		9	-2.69		3											
COc1cc(Nc2c(C#N)cnc3cc(OCCCN4CCN(C)CC4)c(OC)cc23)c(Cl)cc1Cl [bosutinib]		-5.27		-5		0.0624	-2		-5.36											-2.57

Reference: publication PMC3961306, “Comparison of the Cancer Gene Targeting and Biochemical Selectivities of All Targeted Kinase Inhibitors Approved for Clinical Use” (PLoS ONE, 2014)
